How the values were obtained:
Assay type in all cases: biochemical
[1] = biological target: T1, USP8 (Homo sapiens, UniProt P40818); experiment: USP8 activity assay; details: 400 nM Ub-AMC, pH8.8, 30 min pre-incubation at 25° C., 60 min at 37° C.; sigmoidal fit; AF: Autofluorescent; read-out: USP 8 (inhibition of cysteine protease activity)
T1 sequence (P40818 1-1118): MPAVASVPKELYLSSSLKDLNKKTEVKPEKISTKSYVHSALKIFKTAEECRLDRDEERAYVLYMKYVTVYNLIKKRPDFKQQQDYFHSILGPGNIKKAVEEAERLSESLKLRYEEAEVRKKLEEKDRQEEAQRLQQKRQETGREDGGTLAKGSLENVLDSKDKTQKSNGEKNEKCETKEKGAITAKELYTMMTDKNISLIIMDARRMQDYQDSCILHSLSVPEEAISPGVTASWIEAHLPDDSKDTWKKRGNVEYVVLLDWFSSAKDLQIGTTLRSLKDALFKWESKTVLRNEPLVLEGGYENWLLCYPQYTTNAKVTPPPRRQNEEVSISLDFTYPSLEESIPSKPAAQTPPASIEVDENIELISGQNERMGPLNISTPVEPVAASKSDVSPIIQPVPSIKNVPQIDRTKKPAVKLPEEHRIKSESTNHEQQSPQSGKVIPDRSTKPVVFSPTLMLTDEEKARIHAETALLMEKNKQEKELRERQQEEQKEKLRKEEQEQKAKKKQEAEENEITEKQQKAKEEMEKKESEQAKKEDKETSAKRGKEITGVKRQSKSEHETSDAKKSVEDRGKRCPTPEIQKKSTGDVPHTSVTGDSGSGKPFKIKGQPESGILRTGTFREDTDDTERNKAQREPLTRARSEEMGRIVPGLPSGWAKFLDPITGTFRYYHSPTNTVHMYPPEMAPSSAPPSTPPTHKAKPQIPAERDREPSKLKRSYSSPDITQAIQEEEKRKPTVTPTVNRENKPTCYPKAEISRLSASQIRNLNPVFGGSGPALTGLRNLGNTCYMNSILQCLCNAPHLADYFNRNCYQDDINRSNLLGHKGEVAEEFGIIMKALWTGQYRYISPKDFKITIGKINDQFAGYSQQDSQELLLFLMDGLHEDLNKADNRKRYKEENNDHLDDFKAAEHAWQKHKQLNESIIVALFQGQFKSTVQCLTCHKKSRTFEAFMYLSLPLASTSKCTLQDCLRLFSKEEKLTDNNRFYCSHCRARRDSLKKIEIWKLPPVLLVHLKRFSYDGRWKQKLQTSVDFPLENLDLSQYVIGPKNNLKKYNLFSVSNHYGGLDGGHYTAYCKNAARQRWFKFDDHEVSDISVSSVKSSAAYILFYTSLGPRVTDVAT

[2] = biological target: T2, Caspase 3 (Homo sapiens, UniProt P42574); experiment: Caspase 3 activity assay; details: 500 nM Ac-DEVD-AMC, 3.2 nM enzyme, 30 min pre-incubation at 25° C., 60 min at 37° C.; sigmoidal fit; AF: Autofluorescent; read-out: Casp3 (inhibition of cysteine protease activity)
T2 sequence (P42574 29-175 limits assumed): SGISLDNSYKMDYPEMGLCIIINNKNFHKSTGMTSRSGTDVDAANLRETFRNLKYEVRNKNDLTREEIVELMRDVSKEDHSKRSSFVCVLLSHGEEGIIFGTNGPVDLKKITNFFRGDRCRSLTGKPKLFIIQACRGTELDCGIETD
T2 sequence (P42574 176-277 limits assumed): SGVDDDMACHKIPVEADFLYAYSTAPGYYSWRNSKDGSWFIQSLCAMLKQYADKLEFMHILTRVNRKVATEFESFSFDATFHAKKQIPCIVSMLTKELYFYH
Experimental: Compounds stocks (100 mM) were stored at −20° C. in DMSO. […] Reactions were performed as duplicates in Black LJL 96 well plates (HE microplates; Molecular Devices; 20 μl final reaction volume). The substrate concentration for caspase 3 specificity assay was 500 nM (Ac-DEVD-AMC; Promega). […] The concentrations were determined in order to perform specificity assays under initial velocities at fixed substrate concentration. Compounds were pre-incubated with enzymes for 30 minutes at 25° C. Reactions were initiated by addition of substrate to the plates containing the enzymes (+/−compounds) diluted in assay buffer. Reactions were incubated for 60 minutes at 37° C. Reactions were stopped by adding acetic acid (100 mM final). Readings were performed on a Pherastar Fluorescent Reader (BMG). δ Emission 380 nm; δ Excitation=460 nm. Data (mean values+/− standard deviation) were analyzed as % of control (no compound) and plotted as percentage versus the Log of the compound concentration using GraphPad (Prism). Data were fitted to a sigmoidal model (variable slope).

[3] = biological target: Cathepsin B (Homo sapiens, UniProt P07858); experiment: Cathepsin B activity assay; details: 36 μM z-RR-AMC, 3.6 nM enzyme, 30 min pre-incubation at 25° C., 60 min at 37° C.; sigmoidal fit; AF: Autofluorescent; read-out: cathepB (inhibition of cysteine protease activity)
Experimental: Cathepsin B was diluted in Cathepsin B buffer (20 mM Tris HCl pH 6.8; 1 mM EDTA; 1 mM DTT). Compounds stocks (100 mM) were stored at −20° C. in DMSO. […] Reactions were performed as duplicates in Black LJL 96 well plates (HE microplates; Molecular Devices; 20 μl final reaction volume). The substrate concentration for cathepsin B specificity assay was 36 μM (z-RR-AMC; Calbiochem). The concentration of the enzyme (Cathepsin B) in specificity assays was 3.6 nM. The concentrations were determined in order to perform specificity assays under initial velocities at fixed substrate concentration. Compounds were pre-incubated with enzymes for 30 minutes at 25° C. Reactions were initiated by addition of substrate to the plates containing the enzymes (+/− compounds) diluted in assay buffer. Reactions were incubated for 60 minutes at 37° C. Reactions were stopped by adding acetic acid (100 mM final). Readings were performed on a Pherastar Fluorescent Reader (BMG). δ Emission 380 nm; 6 Excitation=460 nm. Data (mean values+/− standard deviation) were analyzed as % of control (no compound) and plotted as percentage versus the Log of the compound concentration using GraphPad (Prism). Data were fitted to a sigmoidal model (variable slope).

Row | Compound | IC50 [1] | IC50 [2] | IC50 [3]
1 | COc1nc2c(nc1C#N)C(=O)c1ccccc1-2 [Example 3, 3-methoxy-9-oxo-9H-indeno[1,2-b]pyrazine-2-carbonitrile] | 31 µM | > 100 µM | > 100 µM
2 | Cc1ccc2c(c1)-c1nc(C#N)c(C#N)nc1C2=O [Example 17e, 6-Methyl-9-oxo-9H-indeno[1,2-b]pyrazine-2,3-dicarbonitrile] | 0.93 µM | 3.3 µM | 20 µM
3 | C=CCON=C1c2ccccc2-c2nc(C#N)c(C#N)nc21 (mixture of isomers) [Example 13b, 9-(Allyloxyimino)-9H-indeno[1,2-b]pyrazine-2,3-dicarbonitrile] | 0.56 µM | > 100 µM | > 100 µM
